{
  "source": "the supplement of paper PMC3974653",
  "note": "Where a name gives a salt, the structure may show the parent alone.",
  "data": [
    {"tested_on": "MTT (mouse pheochromocytoma)", "test": "IC50 of cell viability (ATP content)", "details": "(24 or 48 h)", "summary_of_the_method": "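After overnight culture at 37°C, 5% CO2 in white 1536-well plates, MTT mouse pheochromocytoma cells were given 23 nl of library compound in DMSO by pintool across 8 concentrations, spanning final 0.5 nM to 46 µM. Following 24 or 48 hrs, CellTiter-Glo luminescence was read after 15 minutes and normalised against positive-control (100%) and DMSO (0%) wells. A four-parameter logistic model provided the IC50.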", "units": {"IC50 of cell viability": "µM"}, "values": [
      {"compound": "NCCCCCC(=O)O", "note": "[Aminocaproic acid]", "IC50 of cell viability": "> 46"},
      {"compound": "Nc1ccc(C(=O)NCC(=O)O)cc1", "note": "[Aminohippuric acid]", "IC50 of cell viability": "> 46"},
      {"compound": "CCCCc1oc2ccccc2c1C(=O)c1cc(I)c(OCCN(CC)CC)c(I)c1", "note": "[Amiodarone hydrochloride]", "IC50 of cell viability": "> 46"},
      {"compound": "CCN1CCCC1CNC(=O)c1cc([S+](=O)([O-])CC)c(N)cc1OC", "note": "(stereo unspecified) [Amisulpride]", "IC50 of cell viability": "> 46"},
      {"compound": "CN(C)CCC=C1c2ccccc2CCc2ccccc21", "note": "[Amitriptyline]", "IC50 of cell viability": "> 46"},
      {"compound": "CCOC(=O)C/1=C(COCCN)/N\\C(=C(C1C2=C(Cl)C=CC=C2)\\C(=O)OC)C", "note": "(stereo unspecified) [Amlodipine besylate]", "IC50 of cell viability": "> 46"},
      {"compound": "CCN(CC)Cc1cc(Nc2ccnc3cc(Cl)ccc23)ccc1O.Cl.Cl.O.O", "note": "[Amodiaquin dihydrochloride dihydrate]", "IC50 of cell viability": "> 46"},
      {"compound": "COc1cc(C(=O)OC(COCCC(C)C)CN2CCOCC2)cc(OC)c1OC", "note": "(stereo unspecified) [Amoproxan]", "IC50 of cell viability": "> 46"},
      {"compound": "CCNC(=O)N1CCN(CCCC(c2ccc(F)cc2)c2ccc(F)cc2)CC1.Cl", "note": "[Amperozide hydrochloride]", "IC50 of cell viability": "> 46"},
      {"compound": "C[C@@H]1[C@H](O)[C@@H](C)/C=C/C=C/C=C/C=C/C=C/C=C/C=C/[C@H](O[C@@H]2O[C@H](C)[C@@H](O)[C@H](N)[C@@H]2O)C[C@@H]2O[C@](O)(C[C@@H](O)C[C@@H](O)[C@H](O)CC[C@@H](O)C[C@@H](O)CC(=O)O[C@H]1C)C[C@H](O)[C@H]2C(=O)O", "note": "[Amphotericin B]", "IC50 of cell viability": "> 46"},
      {"compound": "CC1(C)SC2C(NC(=O)C(N)c3ccccc3)C(=O)N2C1C(=O)O", "note": "(stereo unspecified) [Ampicillin A]", "IC50 of cell viability": "> 46"},
      {"compound": "CC(C)CN(C[C@@H](O)[C@H](Cc1ccccc1)NC(=O)O[C@H]1CCOC1)[S+](=O)([O-])c1ccc(N)cc1", "note": "[Amprenavir]", "IC50 of cell viability": "> 46"},
      {"compound": "CCCc1ncc(C[n+]2ccccc2C)c(N)n1.Cl.[Cl-]", "note": "[Amprolium hydrochloride]", "IC50 of cell viability": "> 46"},
      {"compound": "CN1N(C2=CC=CC=C2)C(=O)C(=C1/C)/N", "note": "[Ampyrone]", "IC50 of cell viability": "> 46"},
      {"compound": "Nc1cc(-c2ccncc2)c[nH]c1=O", "note": "[Amrinone]", "IC50 of cell viability": "> 46"},
      {"compound": "COc1cc(N[S+](C)(=O)[O-])ccc1Nc1c2ccccc2nc2ccccc12.Cl", "note": "[Amsacrine hydrochloride]", "IC50 of cell viability": "> 46"},
      {"compound": "CC[C@](C)(CN(C)C)OC(=O)c1ccccc1", "note": "[Amyleine hydrochloride]", "IC50 of cell viability": "> 46"},
      {"compound": "O=C1CN2Cc3c(ccc(Cl)c3Cl)NC2=N1", "note": "[Anagrelide hydrochloride]", "IC50 of cell viability": "> 46"},
      {"compound": "CC(C)(C#N)c1cc(Cn2cncn2)cc(C(C)(C)C#N)c1", "note": "[Anastrozole]", "IC50 of cell viability": "> 46"},
      {"compound": "C/C=C/c1ccc(OC)cc1", "note": "[Anethole]", "IC50 of cell viability": "> 46"},
      {"compound": "CNC(=O)Oc1ccccc1C(=O)Nc1ccccc1", "note": "[Anilamate]", "IC50 of cell viability": "> 46"},
      {"compound": "Nc1ccccc1.O=[N+]([O-])O", "note": "[Anilinium nitrate]", "IC50 of cell viability": "> 46"},
      {"compound": "CCCC(CCC)C(=O)OC1C[C@H]2CC[C@@H](C1)[N+]2(C)C", "note": "(stereo partly specified) [Anisotropine methyl bromide]", "IC50 of cell viability": "> 46"},
      {"compound": "C1C\\N=C(\\CN(CC2=CC=CC=C2)C3=CC=CC=C3)N1", "note": "[Antazoline hydrochloride]", "IC50 of cell viability": "> 46"},
      {"compound": "CCCC(=O)O[C@@]1([C@@H](C)C[C@H]2[C@@H]3CCC\\4=C\\C(=O)\\C=C/[C@@]4(C)[C@@]3(F)[C@H](O)C[C@]12C)C(=O)COC(=O)CC", "note": "[Antebate]", "IC50 of cell viability": "> 46"},
      {"compound": "O=C1c2c(O)cccc2Cc2cccc(O)c21", "note": "[Anthralin]", "IC50 of cell viability": "> 46"},
      {"compound": "O=C1c2ccccc2C(=O)c2ccccc21", "note": "[Anthraquinone]", "IC50 of cell viability": "> 46"},
      {"compound": "CC1=NN=C2C\\N=C(C3=CC=CC=C3Cl)/C4=C(SC(=C4)CCC(=O)N5CCOCC5)[N]12", "note": "[Apafant]", "IC50 of cell viability": "> 46"},
      {"compound": "CN[C@H]1[C@H](O[C@@H]2O[C@@H](CO)[C@H](N)[C@H](O)[C@@H]2O)O[C@H]2C[C@@H](N)[C@@H](O[C@H]3[C@H](O)[C@H](O)[C@H](N)C[C@@H]3N)O[C@@H]2[C@H]1O", "note": "[Apramycin]", "IC50 of cell viability": "> 46"},
      {"compound": "C[C@@H](O[C@@H]1OCCN(Cc2nc(=O)[nH][nH]2)[C@@H]1c1ccc(F)cc1)c1cc(C(F)(F)F)cc(C(F)(F)F)c1", "note": "[Aprepitant]", "IC50 of cell viability": "> 46"},
      {"compound": "COC(=O)C1=C(C)NC(C)=C(C(=O)OCC(C)=O)C1c1ccccc1[N+](=O)[O-]", "note": "(stereo unspecified) [Aranidipine]", "IC50 of cell viability": "> 46"},
      {"compound": "N=C(N)NCCC[C@H](NC(=O)[C@@H]1CCCN1C(=O)[C@@H]1CSSC[C@H](N)C(=O)N[C@@H](Cc2ccc(O)cc2)C(=O)N[C@@H](Cc2ccccc2)C(=O)N[C@@H](CCC(N)=O)C(=O)N[C@@H](CC(N)=O)C(=O)N1)C(=O)NCC(N)=O", "note": "[Argipressin acetate]", "IC50 of cell viability": "> 46"},
      {"compound": "Nc1ccc([As](=O)(O)O)cc1", "note": "[Arsanilic acid]", "IC50 of cell viability": "> 46"},
      {"compound": "CO[C@H]1O[C@@H]2O[C@@]3(C)CC[C@H]4[C@H](C)CC[C@@H]([C@H]1C)[C@@]24OO3", "note": "[Artemetero]", "IC50 of cell viability": "> 46"},
      {"compound": "CCCN[C@@H](C)C(=O)Nc1c(C)csc1C(=O)OC", "note": "[Articaine hydrochloride]", "IC50 of cell viability": "> 46"},
      {"compound": "CCCCCCCCCCCCCCCC(=O)OCC(O)C1OC(=O)C(O)=C1O", "note": "(stereo unspecified) [Ascorbyl palmitate]", "IC50 of cell viability": "> 46"}
    ]}
  ]
}
